Pest or weed control and chromatographic logP data for one compound are collected here from patent US7943774B2 (priority 2008, dated 2011).

One series concerns Phytophthora infestans. Description: whole plant or invertebrate. As to conditions: in Solanum lycopersicum, 168 h, read-out: efficacy. In kind it is in vivo.
Another series deals with Plasmopara viticola. Description: Plasmopara test (grapevine)/protective. The settings on record: 144 h, active compound concentration of 100 ppm, young grapevine plants sprayed, then inoculated, evaluation 6 days after inoculation, 0% = control, 100% = no infection, read-out: efficacy. It counts as in vivo. The procedure:
Plasmopara Test (Grapevine)/Protective
After the spray coating has dried on, the plants are inoculated with an aqueous spore suspension of Plasmopara viticola and then remain in an incubation cabin at about 20° C. and 100% relative atmospheric humidity for 1 day. The plants are then placed in a greenhouse at about 21° C. and an atmospheric humidity of about 90% for 4 days. The plants are then moistened and placed in an incubation cabin for 1 day.
Evaluation is carried out 6 days after the inoculation.

A further series can be described thus: log P (pH2.3). It counts as physicochemical. As to conditions: reversed-phase HPLC column (C18); method [b]: LC-MS, acidic range, pH 2.7, 0.1% aqueous formic acid and acetonitrile.

`COc1ccc(C#Cc2csc(C3CCN(C(=O)Cn4nc(C(F)(F)F)cc4C)CC3)n2)cc1` [Example I-100, 1-(4-{4-[(4-Methoxyphenyl)ethynyl]-1,3-thiazol-2-yl}piperidin-1-yl)-2-[5-methyl-3-(trifluoromethyl)-1H-pyrazol-1-yl]ethanone]: in the series with Phytophthora infestans, the pest or weed control at 500 ppm was not below 70%. The pest or weed control at 100 ppm in the series on Plasmopara viticola is not below 70%. Besides, the chromatographic logP (as a rule, lipophilicity estimated from chromatographic retention) in “log P (pH2.3)” was 3.79.
